One assay concerns L929 cells. The assay can be described thus: TNF-induced RIPK1-dependent cell death in L929 cells (MTT cell survival). The class given is cell-based. The settings on record: 20 μM, 2 h pre-treatment, TNF (50 ng/mL) 20 h. On the procedure:
(§1) FIG. 1. RIPA-56 prevents RIPK1-dependent cell death in L929 cells upon caspase inhibition and TNF stimulation. L929 cells were treated with RIPA-56 (20 μM), Nec-1 (20 μM) or vehicle for 2 h, prior to incubation with or without TNF (50 ng/mL), and analyzed for (A) morphology and (B) cell survival using MTT assay, after 20 h incubation with or without TNF; (C) Western blot analyses at different time points of incubation with TNF. Results are shown as mean±SEM; n.s., not significant; ****p<0.0001. Data are representative of three independent experiments.
(§2) L929 cells (LGC Standards, Molsheim, France), were cultured in Dulbecco's modified Eagle's medium (DMEM) (ThermoFisher, Massachusetts, USA) supplemented with 10% fetal bovine serum (Eurobio, Courtaboeuf, France), penicillin (100 IU/ml), streptomycin (0.1 mg/ml), and L-glutamine (0.03%) (ThermoFisher). […]
Cell viability was determined by using 3-(4,5-dimethylthiazol-2-yl)-[…] (MTT) colorimetric assay (ThermoFisher), which measures cell metabolic activity. […] Once MTT crystals were developed and controlled under light microscopy, they were dissolved in DMSO and quantified by measuring absorbance at 540 nm.

In the next assay the test system is RIPK1. The experiment in a line: ELISA of RIPK1 released in supernatant of L929 cells exposed to TNFα. The settings on record: 20 μM, 2 h, then TNFα (25 ng/mL) 6 h. Type of assay: cell-based, murine. The method, then:
FIG. 12. […] Results are shown as mean±SEM of six replicates.
L929 cells (LGC Standards, Molsheim, France), were cultured in Dulbecco's modified Eagle's medium (DMEM) (ThermoFisher, Massachusetts, USA) supplemented with 10% fetal bovine serum (Eurobio, Courtaboeuf, France), penicillin (100 IU/ml), streptomycin (0.1 mg/ml), and L-glutamine (0.03%) (ThermoFisher). […] AML-12 (alpha mouse liver-12) hepatocytes (LGC Standards) were cultured in DMEM/F12 Medium (ThermoFisher) supplemented with 10% fetal bovine serum (Eurobio), 10 μg/ml insulin, 5.5 μg/ml transferrin, 5 ng/ml selenium and 40 ng/ml dexamethasone (Sigma, Missouri, USA). AML-12 hepatocytes were stimulated with insulin (#I0516, 10 nM; Sigma) for 15 minutes.
Protein concentrations of human RIPK1 (SEE640Hu; Could-Clone Corp., Texas, USA), human MLKL (SER645Hu; Could-Clone Corp.) and murine RIPK1 (CSB-EL019735MO; Cusabio, Texas, USA) were determined by an ELISA kit according to the manufacturer's instructions.

The target of assay [1] is T1, receptor-interacting protein kinase 1 (RIPK1) (Homo sapiens, UniProt Q13546).
T1 sequence (Q13546 1-671): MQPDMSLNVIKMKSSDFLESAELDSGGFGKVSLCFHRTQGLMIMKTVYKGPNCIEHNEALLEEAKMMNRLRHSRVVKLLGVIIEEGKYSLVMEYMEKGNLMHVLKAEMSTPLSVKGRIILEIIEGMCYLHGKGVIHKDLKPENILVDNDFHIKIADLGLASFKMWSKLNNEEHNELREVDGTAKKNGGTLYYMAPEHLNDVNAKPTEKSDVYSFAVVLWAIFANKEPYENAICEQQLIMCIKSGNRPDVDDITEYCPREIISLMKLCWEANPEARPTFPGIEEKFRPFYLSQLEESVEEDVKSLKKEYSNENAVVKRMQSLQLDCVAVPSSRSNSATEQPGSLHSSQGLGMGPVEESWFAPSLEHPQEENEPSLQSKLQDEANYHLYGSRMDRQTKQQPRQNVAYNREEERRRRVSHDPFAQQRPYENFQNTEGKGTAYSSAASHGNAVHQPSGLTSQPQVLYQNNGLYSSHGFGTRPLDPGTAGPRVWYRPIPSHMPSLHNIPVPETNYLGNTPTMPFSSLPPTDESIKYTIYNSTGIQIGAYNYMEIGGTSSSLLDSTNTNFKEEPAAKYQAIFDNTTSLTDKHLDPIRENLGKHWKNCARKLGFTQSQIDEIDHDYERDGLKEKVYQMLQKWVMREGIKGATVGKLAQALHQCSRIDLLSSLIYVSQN
Conditions: Ren et al., J Med Chem 2017; cited from earlier work.

Another assay concerns MLKL. The assay can be described thus: Western blot of MLKL phosphorylation/activation in TNF-treated L929 cells. The class given is cell-based. Conditions: within hours. On the procedure: as §1, §2
Tissue samples were homogenized in NP-40 lysis buffer using a tissue grind pestle (Kimble, Rockwood, USA) or with a bead ruptor 12 (Omni International, Georgia, USA) to obtain protein lysates. Thirty μg of protein extracts from cells or tissue homogenates were separated by SDS-PAGE, transferred to polyvinylidene difluoride membrane and analyzed by immunoblotting. […]

As for `CCC(C)(C)C(=O)N(O)Cc1ccccc1` [RIPA-56, N-Benzyl-N-hydroxy-2,2-dimethylbutanamide], the RIPK1-dependent cell death result in the assay with L929 cells is listed as “prevents”. Also, the “RIPK1 in the supernatant” value in the assay on RIPK1 is recorded as “undetectable”. In assay [1], the RIPK1 inhibitor profile entry was “selective and metabolically stable inhibitor”. In addition, the “phosphorylation and activation of MLKL” value with MLKL is given as “inhibited”.
